The target in series [1] is T1, NcCAR (Neurospora crassa, UniProt Q7RW48).
T1 construct: gene NCU05000; full length, codon-optimized gene, N-terminal TEV-cleavable His-tag (removed for kinetics), pETDUET1, co-expressed with E. coli phosphopantetheinyl transferase (CAQ31055.1) in E. coli BL21 (DE3) Star; 120 kDa
Briefly: spectrophotometric NADPH depletion assay, […] nm, initial rates. The series is classed as biochemical. To be noted: apparent, ATP, MgCl2, MES buffer pH 6.0, 28 °C, 5% v/v DMSO.

For series [2], the target named is T1, NcCAR. Briefly: time-resolved […] NMR of cinnamic acid reduction; relief of inhibition by pyrophosphatase. The series is classed as biochemical. To be noted: co-product inhibition, inferred, ATP, NADPH, MgCl2, Tris-HCl pH 7.5.
The subject of the next series is O=C(O)c1ccc2c(c1)OCO2. Briefly: purified protein. The class given is biochemical, Neurospora crassa. To be noted: apparent, ATP, NADPH, MgCl2, MES buffer pH 6.0, 28 °C, substrate in water with equimolar KOH.

T1 sequence (Q7RW48 whole entry): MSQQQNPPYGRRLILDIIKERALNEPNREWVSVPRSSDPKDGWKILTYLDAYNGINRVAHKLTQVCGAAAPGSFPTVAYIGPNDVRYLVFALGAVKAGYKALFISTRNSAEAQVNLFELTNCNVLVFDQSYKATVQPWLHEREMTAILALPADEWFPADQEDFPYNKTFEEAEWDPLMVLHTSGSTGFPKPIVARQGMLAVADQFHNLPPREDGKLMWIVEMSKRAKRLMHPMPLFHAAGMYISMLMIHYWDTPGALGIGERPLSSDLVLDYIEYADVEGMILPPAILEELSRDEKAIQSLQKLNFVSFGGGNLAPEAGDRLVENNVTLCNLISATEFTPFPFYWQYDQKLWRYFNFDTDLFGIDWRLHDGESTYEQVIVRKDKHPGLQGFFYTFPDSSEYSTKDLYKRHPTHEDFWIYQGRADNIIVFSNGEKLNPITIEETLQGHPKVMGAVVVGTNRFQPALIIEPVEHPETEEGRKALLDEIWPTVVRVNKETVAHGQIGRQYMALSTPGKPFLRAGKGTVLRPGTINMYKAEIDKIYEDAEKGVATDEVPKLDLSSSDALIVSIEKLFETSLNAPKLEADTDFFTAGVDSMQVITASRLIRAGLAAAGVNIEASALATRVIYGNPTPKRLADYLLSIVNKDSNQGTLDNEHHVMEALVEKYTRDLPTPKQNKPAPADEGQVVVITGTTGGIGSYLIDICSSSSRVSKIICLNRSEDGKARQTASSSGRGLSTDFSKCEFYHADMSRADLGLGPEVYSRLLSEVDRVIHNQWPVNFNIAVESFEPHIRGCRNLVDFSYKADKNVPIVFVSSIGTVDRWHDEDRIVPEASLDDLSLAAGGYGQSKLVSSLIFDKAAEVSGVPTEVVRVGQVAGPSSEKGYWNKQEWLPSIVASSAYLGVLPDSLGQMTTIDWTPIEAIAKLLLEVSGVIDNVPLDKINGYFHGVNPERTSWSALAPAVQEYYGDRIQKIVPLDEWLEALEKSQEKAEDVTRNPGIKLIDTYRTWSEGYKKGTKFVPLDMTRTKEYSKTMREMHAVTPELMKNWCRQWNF

The Km is the substrate concentration at which the rate is half of its maximum. As for `O=C(O)/C=C/c1ccccc1` [1a, cinnamic acid], on NcCAR [1], the Michaelis constant (Km) was 445 ± 50 µM.

In the case of `O=P(O)(O)OP(=O)(O)O` [pyrophosphate], on NcCAR [2], the “time-resolved 31P NMR of cinnamic acid reduction; relief of inhibition by pyroph” value is “these results indicate the inhibition of NcCAR by the co‐product pyrophosphate”.

Broadly, the kcat is the maximal rate divided by the concentration of active sites. For the molecule NcCAR (Neurospora crassa OR74A), in the series on O=C(O)c1ccc2c(c1)OCO2, the Km stood at 173 ± 22 µM and the kcat was 7.46 s⁻¹.

(Values after article PMC5129534, “Selective Enzymatic Transformation to Aldehydes in vivo by Fungal Carboxylate Reductase from Neurospora crassa” (Advanced Synthesis & Catalysis, 2016).)
